US10934277B2, “Enantiomerically purified GPER agonist for use in treating disease states and conditions” (Linnaeus Therapeutics, Inc., priority 2018, dated 2021)
In brackets after ≈: the same amount, converted by molar mass. Several values for one entry are separate records, joined by “and”; a condition that tells them apart may be missing. Equal values may be shown once.

Legend:
[1] = Physical stability of amorphous material; type: physicochemical
Protocol: Amorphous material crystallized to Form A upon exposure to either elevated temperature (within 4 days at 60° C.) or humidity (within 12 days at 75% RH).

[2] = Disproportionation of salts in water slurry; type: physicochemical
Text: The possibility of disproportionation in water was investigated. […] The excess solids were recovered and reanalyzed by XRPD for evidence of freebase or benzenesulfonic acid.
The possibility of disproportionation in water was investigated. […] The excess solids were recovered and reanalyzed by XRPD for evidence of freebase or naphthalene-2-sulfonic acid.

[3] = Plasma concentration of SRR G-1 in rats after oral dosing (LC-MS/MS); type: in vivo; conditions: rat, PO 10 mg/kg, individual animals (R1-R9)
Text: The results are shown in Tables 22-24 for each respectively.

[4] = Approximate solubility of SRR G-1 Form A in solvents; type: physicochemical
[5] = Solubility measurement in pH buffers; type: physicochemical; conditions: 37° C., 24 hrs; for solubility at 24 h: aqueous buffer, thermodynamic from solid, read-out: Solubility; for Form Conversion: XRPD of residual solids
[6] = Kinetic solubility measurement in bio-relevant media; type: physicochemical; conditions: 37° C.; for Form Change: SGF; for solubility at 1 h / solubility at 2 h / solubility at 4 h / solubility at 24 h: thermodynamic from solid
[7] = Dynamic Vapor Sorption/Desorption (DVS); type: physicochemical
Text: The weight change through the sorption/desorption cycle was less than 0.3% weight. Hysteresis was not observed. The material recovered from the Dynamic Vapor Sorption experiment was Form A by XRPD.
Moisture sorption/desorption data were collected on a VTI SGA-100 Vapor Sorption Analyzer. NaCl and PVP were used as calibration standards. Samples were not dried prior to analysis. Sorption and desorption data were collected over a range from 5% to 95% RH at 10% RH increments under a nitrogen purge. The equilibrium criterion used for analysis was less than 0.0100% weight change in 5 minutes with a maximum equilibration time of 3 hours. Data were not corrected for the initial moisture content of the samples.

YUMM1.7 melanoma cells = assay: YUMM1.7 proliferation assay (4 day growth); type: cell-based; conditions: 500 nM
Protocol: YUMM1.7 cells were cultured for at least 1 passage after thawing and were cultured in DMEM with 5% FBS (Invitrogen) and 1% antibiotic-antimycotic (gibco) at 37C 5% CO2. Proliferation assays were performed by plating 15,000 cells in 12-well plates with 5 replicates per condition tested. Media and drugs were refreshed on Day 2. On Day 4, cells were trypsinized using 0.25 ml 0.05% Trypsin with EDTA (Invitrogen) for 5 minutes to detach from the plate, mixed with 0.75 ml of culture media, and counted using a hemocytometer.
Starting cell numbers were 15,000.

[8] = Physical stability of Form B (desolvation); type: physicochemical
Protocol: The physical stability of Form B was investigated. […] Vacuum at 70° C.

## CC(=O)c1ccc2c(c1)[C@@H]1C=CC[C@@H]1[C@H](c1cc3c(cc1Br)OCO3)N2 [Amorphous material]
[1]; elevated temperature, 60° C.
  time to crystallization to Form A: ≤ 4 days
[1]; humidity, 75% RH
  time to crystallization to Form A: ≤ 12 days

## CC(=O)c1ccc2c(c1)[C@@H]1C=CC[C@@H]1[C@H](c1cc3c(cc1Br)OCO3)N2.O=S(=O)(O)c1ccc2ccccc2c1 [SRR G-1 Napsylate Form A]
[2]; slurried in water for 5 days, XRPD of recovered solids (freebase Form A recovered)
  disproportionation in water: disproportionation occurred
[3]; time 0.500 h
  Plasma Conc.: 62.2 ng/mL and 50.6 ng/mL and 22.6 ng/mL
[3]; time 1.00 h
  Plasma Conc.: 81.9 ng/mL and 67.5 ng/mL and 33.2 ng/mL
[3]; time 2.00 h
  Plasma Conc.: 46.6 ng/mL and 39.9 ng/mL and 24.3 ng/mL
[3]; time 4.00 h
  Plasma Conc.: 14.6 ng/mL and 14.0 ng/mL and 15.6 ng/mL
[3]; time 8.00 h
  Plasma Conc.: 5.45 ng/mL and 6.09 ng/mL and 3.97 ng/mL
[3]; time 24.0 h, LLOQ 0.100 ng/mL
  Plasma Conc.: 0.641 ng/mL and 0.558 ng/mL and 0.435 ng/mL

## CC(=O)c1ccc2c(c1)[C@@H]1C=CC[C@@H]1[C@H](c1cc3c(cc1Br)OCO3)N2.O=S(=O)(O)c1ccccc1 [SRR G-1 Besylate Form A]
[2]; slurried in water for 4 days, XRPD of recovered solids
  disproportionation in water: disproportionation did not occur
[3]; time 0.500 h
  Plasma Conc.: 39.2 ng/mL and 35.2 ng/mL and 34.1 ng/mL
[3]; time 1.00 h
  Plasma Conc.: 43.9 ng/mL and 42.0 ng/mL and 44.5 ng/mL
[3]; time 2.00 h
  Plasma Conc.: 28.5 ng/mL and 30.6 ng/mL and 32.3 ng/mL
[3]; time 4.00 h
  Plasma Conc.: 20.0 ng/mL and 16.7 ng/mL and 19.5 ng/mL
[3]; time 8.00 h
  Plasma Conc.: 8.17 ng/mL and 5.78 ng/mL and 6.18 ng/mL
[3]; time 24.0 h, LLOQ 0.100 ng/mL
  Plasma Conc.: 0.837 ng/mL and 0.668 ng/mL and 0.647 ng/mL

## CC(=O)c1ccc2c(c1)[C@@H]1C=CC[C@@H]1[C@H](c1cc3c(cc1Br)OCO3)N2 [SRR G-1 Form A, 1-((3aS,4R,9bR)-4-(6-bromobenzo[d][1,3]dioxol-5-yl)-3a,4,5,9b-tetrahydro-3H-cyclopenta[c]quinolin-8-yl)ethan-1-one]
[4]; oil or lipid, sesame oil
  solubility: 2000 µg/mL (≈ 4850 µM)
[4]; organic solvent or mixture, ACN
  solubility: 24000 µg/mL (≈ 58200 µM)
[4]; organic solvent or mixture, DCM
  solubility: > 89000 µg/mL
[4]; organic solvent or mixture, DMSO
  solubility: > 203000 µg/mL
[4]; organic solvent or mixture, EtOAc
  solubility: > 65000 µg/mL
[4]; organic solvent or mixture, EtOH
  solubility: 7000 µg/mL (≈ 17000 µM)
[4]; organic solvent or mixture, IPA
  solubility: 4000 µg/mL (≈ 9700 µM)
[4]; organic solvent or mixture, MeOH
  solubility: 6000 µg/mL (≈ 14600 µM)
[4]; organic solvent or mixture, THF
  solubility: > 67000 µg/mL
[4]; organic solvent or mixture, acetone
  solubility: > 122000 µg/mL
[4]; organic solvent or mixture, diethyl ether
  solubility: 8000 µg/mL (≈ 19400 µM)
[4]; organic solvent or mixture, toluene
  solubility: 40000 µg/mL (≈ 97000 µM)
[4]; water
  solubility: < 2000 µg/mL
[5]; pH 2.0 buffer
  solubility at 24 h: < 0.72 µg/mL
  Form Conversion: No
[5]; pH 3.0 buffer
  solubility at 24 h: < 0.72 µg/mL
  Form Conversion: No
[5]; pH 4.0 buffer
  solubility at 24 h: < 0.72 µg/mL
  Form Conversion: No
[5]; pH 5.0 buffer
  solubility at 24 h: < 0.72 µg/mL
  Form Conversion: No
[5]; pH 6.0 buffer
  solubility at 24 h: < 0.72 µg/mL
  Form Conversion: No
[5]; pH 7.0 buffer
  solubility at 24 h: < 0.72 µg/mL
  Form Conversion: No
[5]; pH 8.0 buffer
  solubility at 24 h: < 0.72 µg/mL
  Form Conversion: No
[6]; FaSSIF, 1 h
  FC (Form Change): No
[6]; FaSSIF, 2 h
  FC (Form Change): No
[6]; FaSSIF, 4 h
  FC (Form Change): No
[6]; FaSSIF, 24 h
  FC (Form Change): No
[6]; FeSSIF, 1 h
  FC (Form Change): No
[6]; FeSSIF, 2 h
  FC (Form Change): No
[6]; FeSSIF, 4 h
  FC (Form Change): No
[6]; FeSSIF, 24 h
  FC (Form Change): No
[6]; 1 h
  Form Change: No
[6]; 2 h
  Form Change: No
[6]; 4 h
  Form Change: No
[6]; 24 h
  Form Change: No
[6]; simulated gastric fluid, SGF (pH 1.8), 1 h
  solubility at 1 h: 5.9 µg/mL (≈ 14.3 µM)
[6]; simulated gastric fluid, SGF (pH 1.8), 2 h
  solubility at 2 h: 6.2 µg/mL (≈ 15 µM)
[6]; simulated gastric fluid, SGF (pH 1.8), 4 h
  solubility at 4 h: 6.6 µg/mL (≈ 16 µM)
[6]; simulated gastric fluid, SGF (pH 1.8), 24 h
  solubility at 24 h: 5.7 µg/mL (≈ 13.8 µM)
[6]; FaSSIF (pH 6.5), 1 h
  solubility at 1 h: 7.1 µg/mL (≈ 17.2 µM)
[6]; FaSSIF (pH 6.5), 2 h
  solubility at 2 h: 6.8 µg/mL (≈ 16.5 µM)
[6]; FaSSIF (pH 6.5), 4 h
  solubility at 4 h: 7.1 µg/mL (≈ 17.2 µM)
[6]; FaSSIF (pH 6.5), 24 h
  solubility at 24 h: 7.3 µg/mL (≈ 17.7 µM)
[6]; FeSSIF (pH 5.0), 1 h
  solubility at 1 h: 36 µg/mL (≈ 87.3 µM)
[6]; FeSSIF (pH 5.0), 2 h
  solubility at 2 h: 37 µg/mL (≈ 89.7 µM)
[6]; FeSSIF (pH 5.0), 4 h
  solubility at 4 h: 38 µg/mL (≈ 92.2 µM)
[6]; FeSSIF (pH 5.0), 24 h
  solubility at 24 h: 37 µg/mL (≈ 89.7 µM)
[7]; DVS isotherm
  hygroscopicity: low hygroscopicity
[7]; DVS, 5% to 95% RH
  weight change through the sorption/desorption cycle: less than 0.3 % weight

## CC(=O)c1ccc2c(c1)[C@@H]1C=CC[C@@H]1[C@H](c1cc3c(cc1Br)OCO3)N2 (racemic) [Racemic G-1, (±)1-(4-(6-bromobenzo[d][1,3]dioxol-5-yl)-(3 aS*,4R*,9bR*)-tetrahydro-3H-cyclopenta[c]quinolin-8-yl)ethan-1-one, reference compound]
YUMM1.7 melanoma cells; 4 days
  doubling compared with that seen with the vehicle: about half
YUMM1.7 melanoma cells; 4 days, starting cell number 15,000
  Doublings: 3.4
YUMM1.7 melanoma cells; starting cell number 15,000, 5 replicates
  cell count after 4 days of growth (single replicates): 16 tens of thousands and 18 tens of thousands and 19 tens of thousands and 17 tens of thousands and 24 tens of thousands
YUMM1.7 melanoma cells; starting cell number 15,000, average of 5 replicates
  average cell count after 4 days of growth: 18.8 tens of thousands

## CC(=O)c1ccc2c(c1)[C@@H]1C=CC[C@@H]1[C@H](c1cc3c(cc1Br)OCO3)N2 [Form B, 1-((3aS,4R,9bR)-4-(6-bromobenzo[d][1,3]dioxol-5-yl)-3a,4,5,9b-tetrahydro-3H-cyclopenta[c]quinolin-8-yl)ethan-1-one]
[8]; exposure to 90 to 100° C. for 25 minutes
  desolvation: Almost complete desolvation
[8]; exposure to 120° C.
  desolvation: Complete desolvation to Form C
[8]; vacuum at 70° C. (or below)
  desolvation: not sufficient for desolvation to occur
